{
  "source": "patent US20110257220A1",
  "about": "“3,11 b-cis-Dihydrotetrabenazine for the Treatment of Schizophrenia and Other Psychoses” (CAMBRIDGE LABORATORIES (IRELAND) LIMITED, priority 2005, published 2011)",
  "key": {"[1]": {"test_system": "female hooded-Lister rats", "conditions": "risperidone; Grayson et al; cited from earlier work"}, "[2]": {"test_system": "female hooded-Lister rats", "assay": "Novel object recognition (NOR) task, sub-chronic PCP-induced cognitive deficit", "format": "in vivo, rat", "conditions": "0.2 mg/kg risperidone i.p.; sub-chronic PCP rats; did not reach statistical significance; FIG. 3", "excerpt": "Certain pre-clinical tests allow the observation of relatively subtle cognitive deficits in the rat that resemble cognitive symptoms in subjects with schizophrenia. The cognitive deficits observed are seen in behaviours such as working memory deficits which may be measured by recognition tasks such as the novel object recognition (NOR) paradigm. A recognition memory task allows the comparison between presented stimuli and previously stored information. Ennaceur & Delacour, Behav. Brain Res. 31: 47-59 (1988) described the NOR test in rats which was based on the differential exploration of familiar and new objects. The NOR test is a non-rewarded, ethologically relevant paradigm based on the spontaneous exploratory behaviour of rats which measures working memory. Each session consists of two trials. In the first trial, the rats are exposed to two identical objects in an open field. During the second trial, rats are exposed to two dissimilar objects, one familiar object from the first trial and one new object. Object recognition in rats can be measured as the difference in time spent exploring the familiar and the new object.\nThe abovementioned rodent model was used to assess the effects of the Isomer A on sub-chronic PCP-induced deficits in working memory using the novel object recognition (NOR) paradigm. The working hypothesis was that both acute and sub-chronic treatment with Isomer A will attenuate the selective working memory deficit induced by sub-chronic PCP as measured in the NOR test paradigm.\nRats are allowed to habituate to the empty test box and the behavioural test room environment for 1 hour on day 1. Prior to behavioural testing on day 2 rats are given a further 3 minutes habituation.\nFollowing the 3 minute habituation period, the rats are given two 3 minute trials (T1 and T2) which are separated by a 1 minute inter-trial interval in the home cage during which the objects are changed.\nIn this trial, the animals are allowed to explore two identical objects (A1 and A2) for 3 minutes.\nIn this trial, the animals explore a familiar object (A) from T1 and a novel object (B) for 3 minutes. The familiar object presented during T2 is a duplicate of the object presented in T1 in order to avoid any olfactory trails.\nThe object exploration is defined by animals licking, sniffing or touching the object with the forepaws whilst sniffing, but not leaning against, turning around, standing or sitting on the object. The exploration time (s) of each object (A1, A2, A and B) in each trial are recorded using two stopwatches and the following factors are calculated: • Total exploration time of both objects in the acquisition trial (s). • Total exploration time of both objects in the retention trial (s). • Habituation of exploratory activity. The LMA includes the exploration time, as measured by the number of lines crossed, for both the trials. • Discrimination index, which is calculated as shown below;\n(time spent exploring novel object−time spent exploring familiar object)÷total time spent in exploring the objects\nBehaviour in all trials was recorded on video for subsequent blind scoring.\n50 female hooded-Lister rats (Harlan, UK) were used as subjects for these studies. Rats were housed in groups of 5 under standard laboratory conditions under a 12 hr light:dark cycle, lights on at 0700 hr. All testing was carried out in the light phase. Food and water were freely provided. […]"}},
  "data": [
    {"smiles": "Cc1nc2n(c(=O)c1CCN1CCC(c3noc4cc(F)ccc34)CC1)CCCC2", "note": "[risperidone, reference compound]", "values": [
      {"measurement": "Sub-chronic PCP-induced deficit in NOR paradigm", "setting": "[1]", "value": "efficacy of risperidone to attenuate"},
      {"measurement": "Discrimination index (DI)", "setting": "[2]", "value": "improved"}
    ]}
  ]
}
